Data reported in patent US20100298141A1, “SUBSTITUTED PYRIDINE N-OXIDE HERBICIDES” (E. I. DU PONT DE NEMOURS AND COMPANY, priority 2007, published 2010).

Experiments:
[1] = system: yellow nutsedge; test: Test C pre-/postemergence test; format: in vivo, Cyperus esculentus
How it was run: (§1)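 Test chemicals were formulated with surfactant in a non-phytotoxic solvent and sprayed both on freshly planted seeds (preemergence) and on 1- to 4-leaf plants of 2–18 cm (postemergence). Flooded-paddy pots received compound directly into 3 cm of standing water, maintained for the test.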

[2] = system: johnsongrass; test: Test C pre-/postemergence test; format: in vivo, Sorghum halepense
How it was run: as §1

[3] = system: green foxtail; test: Test C pre-/postemergence test; format: in vivo, Setaria viridis
How it was run: as §1

[4] = system: crabgrass; test: Test C pre-/postemergence test; format: in vivo, Digitaria sanguinalis
How it was run: as §1

[5] = system: corn; test: Test A pre-/postemergence greenhouse test; format: in vivo, Zea mays; conditions: for Plant response rating, Corn: 0 to 100 scale where 0 is no effect and 100 is complete control; for Corn plant response rating: 0 to 100 scale
How it was run: (§2)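 Untreated controls served as the reference for visual injury ratings taken about ten days after spraying. The non-phytotoxic solvent/surfactant formulation was applied preemergence to seeded loam and sand and postemergence to plants two to ten cm high.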

[6] = system: crabgrass; test: Test A pre-/postemergence greenhouse test; format: in vivo, Digitaria sanguinalis; conditions: for Plant response rating, Crabgrass, Large: 0 to 100 scale where 0 is no effect and 100 is complete control; for Crabgrass, Large plant response rating: 0 to 100 scale
How it was run: as §2

[7] = system: duck salad; test: Test C flooded paddy test; format: in vivo, Heteranthera limosa; conditions: Flood, scale 0 to 100, 0 no effect, 100 complete control, 13 to 15 days
How it was run: (§3)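 Greenhouse pots flooded to 3 cm above soil at time of treatment received compound via the water, which stayed at that level.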

[8] = system: bermudagrass; test: Test C pre-/postemergence test; format: in vivo, Cynodon dactylon
How it was run: as §1

[9] = system: pigweed; test: Test C pre-/postemergence test; format: in vivo, Amaranthus retroflexus
How it was run: as §1

[10] = system: corn; test: Test C pre-/postemergence test; format: in vivo, Zea mays
How it was run: as §1

[11] = system: Goosegrass; test: Test C pre-/postemergence test; format: in vivo, Eleusin indica
How it was run: as §1

[12] = system: barnyardgrass; test: Test C flooded paddy test; format: in vivo, Echinochloa crus-galli; conditions: Flood, scale 0 to 100, 0 no effect, 100 complete control, 13 to 15 days
How it was run: as §3

[13] = system: Italian ryegrass; test: Test C pre-/postemergence test; format: in vivo, Lolium multiflorum
How it was run: as §1

[14] = system: soybean; test: Test C pre-/postemergence test; format: in vivo, Glycine max
How it was run: as §1

[15] = system: umbrella sedge; test: Test C flooded paddy test; format: in vivo, Cyperus difformis; conditions: Flood, 250 g ai/ha; scale 0 to 100, 0 no effect, 100 complete control; 13 to 15 days
How it was run: as §3

[16] = system: velvetleaf; test: Test A pre-/postemergence greenhouse test; format: in vivo, Abutilon theophrasti; conditions: for Plant response rating, Velvetleaf: 0 to 100 scale where 0 is no effect and 100 is complete control; for Velvetleaf plant response rating: 0 to 100 scale
How it was run: as §2

[17] = system: barnyardgrass; test: Test A pre-/postemergence greenhouse test; format: in vivo, Echinochloa crus-galli; conditions: for Plant response rating, Barnyardgrass: 0 to 100 scale where 0 is no effect and 100 is complete control; for Barnyardgrass plant response rating: 0 to 100 scale
How it was run: as §2

[18] = 62 g ai/ha, Preemergence, scale 0 to 100
[19] = 125 g ai/ha, preemergence, scale 0 (no effect) to 100 (complete control)
[20] = Preemergence, 31 g ai/ha, scale 0 to 100 (0 no effect, 100 complete control)
[21] = preemergence, 250 g ai/ha, scale 0 (no effect) to 100 (complete control)
[22] = Postemergence, 500 g ai/ha, 0 is no effect, 100 is complete control
[23] = Preemergence, 125 g ai/ha, 0 no effect, 100 complete control

In the case of `Cn1nc(C(F)(F)F)c(C(Cl)S(=O)(=O)c2cccc[n+]2[O-])c1OC(F)F` (stereo not shown) [Compound 51], the “Nutsedge, Yellow plant response rating” value [1, 18] is reported as 40, the “Nutsedge, Yellow plant response rating” value [1, 19] is reported as 40 and the “Plant response rating, Nutsedge, Yellow” value [1, 20] is reported as 0. For the same compound, the “Nutsedge, Yellow plant response rating” value [1, 21] was 100, the “Johnsongrass plant response rating” value [2, 18] was 95 and the “Johnsongrass plant response rating” value [2, 19] was 98. For the same compound, the “Plant response rating, Johnsongrass” value [2, 20] was 75, the “Johnsongrass plant response rating” value [2, 21] was 100 and the “Foxtail, Green plant response rating” value [3, 18] was 85. The “Foxtail, Green plant response rating” value [3, 19] was 85, the “Plant response rating, Foxtail, Green” value [3, 20] was 65 and the “Foxtail, Green plant response rating” value [3, 21] was 100. The “Crabgrass, Large plant response rating” value [4, 18] was 100, the “Crabgrass, Large plant response rating” value [4, 19] was 100 and the “Plant response rating, Crabgrass, Large” value [4, 20] was 65. The “Crabgrass, Large plant response rating” value [4, 21] was 100, the “Plant response rating, Corn” value ([5]; Postemergence, 125 g ai/ha) was 0 and the “Corn plant response rating” value [5, 22] was 20. The “Corn plant response rating” value [5, 23] was 0, the “Plant response rating, Corn” value ([5]; Preemergence, 500 g ai/ha) was 0 and the “Plant response rating, Crabgrass, Large” value ([6]; Postemergence, 125 g ai/ha) was 60. The “Crabgrass, Large plant response rating” value [6, 22] was 90, the “Crabgrass, Large plant response rating” value [6, 23] was 70 and the “Plant response rating, Crabgrass, Large” value ([6]; Preemergence, 500 g ai/ha) was 90. For the same compound, the “Plant response rating, Ducksalad” value ([7]; 62 g ai/ha) was 35, the “Plant response rating, Ducksalad” value ([7]; 250 g ai/ha) was 80 and the “Bermudagrass plant response rating” value ([8]; 62 g ai/ha, Preemergence, scale 0 to 100 (0 no effect, 100 complete control)) was 100. The “Bermudagrass plant response rating” value [8, 19] was 100, the “Plant response rating, Bermudagrass” value [8, 20] was 90 and the “Bermudagrass plant response rating” value [8, 21] was 100. The “Pigweed plant response rating” value [9, 18] was 100, the “Pigweed plant response rating” value [9, 19] was 100 and the “Plant response rating, Pigweed” value [9, 20] was 85. The “Pigweed plant response rating” value [9, 21] was 100, the “Corn plant response rating” value [10, 18] was 0 and the “Corn plant response rating” value [10, 19] was 50. The “Plant response rating, Corn” value [10, 20] was 0, the “Corn plant response rating” value [10, 21] was 50 and the “Goosegrass plant response rating” value [11, 18] was 100. The “Goosegrass plant response rating” value [11, 19] was 100, the “Plant response rating, Goosegrass” value [11, 20] was 100 and the “Goosegrass plant response rating” value [11, 21] was 100. For the same compound, the “Plant response rating, Barnyardgrass” value ([12]; 62 g ai/ha) was 0, the “Plant response rating, Barnyardgrass” value ([12]; 250 g ai/ha) was 50 and the “Ryegrass, Italian plant response rating” value [13, 18] was 30. The “Ryegrass, Italian plant response rating” value [13, 19] was 80, the “Plant response rating, Ryegrass, Italian” value [13, 20] was 0 and the “Ryegrass, Italian plant response rating” value [13, 21] was 80. The “Soybean plant response rating” value [14, 18] was 0, the “Soybean plant response rating” value [14, 19] was 0 and the “Plant response rating, Soybean” value [14, 20] was 0. The “Soybean plant response rating” value [14, 21] was 0, the “Plant response rating, Sedge, Umbrella” value [15] was 95 and the “Plant response rating, Velvetleaf” value ([16]; Postemergence, 125 g ai/ha) was 60. For the same compound, the “Velvetleaf plant response rating” value [16, 22] was 70, the “Velvetleaf plant response rating” value [16, 23] was 60 and the “Plant response rating, Velvetleaf” value ([16]; Preemergence, 500 g ai/ha) was 70. For the same compound, the “Plant response rating, Barnyardgrass” value ([17]; Postemergence, 125 g ai/ha) was 50, the “Barnyardgrass plant response rating” value [17, 22] was 80 and the “Barnyardgrass plant response rating” value [17, 23] was 90. The “Plant response rating, Barnyardgrass” value ([17]; Preemergence, 500 g ai/ha) was 100.
